Data set [1] can be described thus: in vitro. As to conditions: African green monkey; for CC50 at 4 days: uninfected quiescent Vero-B cells.
Data set [2] concerns DENV-1 Djibouti strain D1/H/IMTSSA/98/606. As to the kind of experiment: Antiviral activity against DENV-1 in Vero-B cells (viral RNA load by RT-qPCR). The format is cell-based, Dengue virus. As to conditions: Dengue virus, DENV1, Vero B. On the technique in general: Quantitative PCR measures a nucleic acid by following its amplification.
Data set [3] has as its system DENV-4 strain Dak HD 34 460. As to the kind of experiment: Antiviral activity against DENV-4 in Vero-B cells (viral RNA load by RT-qPCR). The format is cell-based, Dengue virus. The note with it: Dengue virus, DENV4, Vero B.
Data set [4] deals with DENV-2 NGC. As to the kind of experiment: Antiviral activity against DENV-2 NGC in Vero-B cells (viral RNA load by RT-qPCR). As to conditions: Dengue virus, DENV2, Vero B, DENV-2 in Vero-B cells; inhibition of viral RNA replication by 50% (Table 3). The format is cell-based, Dengue virus.
In data set [5] the test system is DENV-3 strain H87 prototype. As to the kind of experiment: Antiviral activity against DENV-3 in Vero-B cells (viral RNA load by RT-qPCR). The format is cell-based, Dengue virus. The note with it: Dengue virus, DENV3, Vero B.

For orientation: EC50 means the midpoint of the concentration-response curve. For `COc1cccc(NC(C(=O)c2c[nH]c3ccc(Cl)cc23)c2ccccc2)c1` (stereo not drawn) [CPD-086], the CC50 at 4 days in data set [1] turned out to be 12 µM. Besides, the EC50 amounted to 0.97 µM in data set [2], 3.57 µM in data set [3], 0.04 µM in data set [4] and 1.05 µM in data set [5].
`COc1cccc(NC(C(=O)c2c[nH]c3ccccc23)c2ccccc2F)c1` (stereo not drawn) [CPD-144]: the CC50 at 4 days in data set [1] came to 20 µM. In addition, the EC50 in data set [2] stood at 2.89 µM; in data set [4], 0.06 µM; in data set [5] it was 3.08 µM.
Take `COc1cccc(NC(C(=O)c2c[nH]c3c(C)cccc23)c2ccc(OC)nc2)c1` (stereo not drawn) [CPD-332]: in data set [1], the CC50 at 4 days is 20 µM. The EC50 is 0.72 µM in data set [2], 2.84 µM in data set [3], 0.04 µM in data set [4] and 1.35 µM in data set [5].
In data set [1], `COc1cccc(NC(C(=O)c2c[nH]c3ccc(F)cc23)c2cnc(OC)cn2)c1` (stereo not drawn) [CPD-295] returned a CC50 at 4 days of 18 µM. For the same compound, the EC50 in data set [2] is 0.34 µM; in data set [3] it was 6.29 µM; in data set [4] it was 0.03 µM; in data set [5], 1.38 µM.
Compound `COc1cccc(NC(C(=O)c2c[nH]c3ccccc23)c2c(F)cc(C#N)cc2F)c1` (stereo not drawn) [CPD-133] registered a CC50 at 4 days in data set [1] of 19 µM. Further, the EC50 worked out at 2.25 µM in data set [2], 0.04 µM in data set [4] and 4.17 µM in data set [5].
Consider `COc1cccc(NC(C(=O)c2c[nH]c3c(OC)cccc23)c2ccccc2)c1` (stereo not drawn) [CPD-222], for which the CC50 at 4 days in data set [1] was above 129 µM. Besides, the concentration giving a half-maximal response (EC50) in data set [2] is 1.81 µM; in data set [3] it was 3.14 µM; in data set [4] it was 0.13 µM; in data set [5], 3.27 µM.
The compound `COc1cncc(NC(C(=O)c2c[nH]c3cc(F)ccc23)c2ccccc2)c1` (stereo not drawn) [CPD-157] returned a CC50 at 4 days in data set [1] of 15 µM. For the same compound, the EC50 in data set [2] came out at 1.31 µM; in data set [3], 5.1 µM; in data set [4] it was 0.05 µM; in data set [5], 0.85 µM.
In the case of `COc1cccc(NC(C(=O)c2c[nH]c3c(Cl)cccc23)c2ccc(C#N)cc2)c1` (stereo not drawn) [CPD-120], the CC50 at 4 days in data set [1] turned out to be 11 µM. The EC50 in data set [2] was determined as 2.31 µM; in data set [4], 0.02 µM; in data set [5], 5.18 µM.
Compound `COc1cccc(NC(C(=O)c2c[nH]c3ccc(F)cc23)c2ccc(OC)nc2)c1` (stereo not drawn) [CPD-154] registered a CC50 at 4 days in data set [1] of 44 µM. Also, the concentration giving a half-maximal response (EC50) came out at 3.92 µM in data set [2], 9.87 µM in data set [3], 0.06 µM in data set [4] and 4.4 µM in data set [5].
`COc1cccc(NC(C(=O)c2cn(CCO)c3ccccc23)c2ccccc2)c1` (stereo not drawn) [CPD-104] showed a CC50 in data set [1] of 65 µM. The EC50 in data set [2] turned out to be 3.85 µM; in data set [3], 14.9 µM; in data set [4] it was 0.35 µM; in data set [5], 24 µM.
In turn, `CCOc1ccc(NC(C(=O)c2c[nH]c3ccccc23)c2ccccc2)cc1OC` (stereo not drawn) [CPD-173] registered a CC50 at 4 days in data set [1] of 69 µM. Moreover, the concentration giving a half-maximal response (EC50) in data set [2] came out at 30.7 µM; in data set [4], 0.02 µM.
On to `COc1cc(NC(C(=O)c2cn(CCCO)c3ccccc23)c2ccccc2)cc(OC)c1` (stereo not drawn) [CPD-210], for which the CC50 in data set [1] is 13 µM. Moreover, the 50% effective concentration (EC50) in data set [2] was determined as 1.03 µM; in data set [4], 0.2 µM.
As for `COc1cccc(NC(C(=O)c2c[nH]c3cc(F)ccc23)c2cnc(OC)cn2)c1` (stereo not drawn) [CPD-297], the CC50 at 4 days in data set [1] worked out at 22 µM. Moreover, the EC50 turned out to be 6.68 µM in data set [3], 0.03 µM in data set [4] and 0.57 µM in data set [5].
For `COc1cc(NC(C(=O)c2c[nH]c3ccccc23)c2ccccc2)ccc1Cl` (stereo not drawn) [CPD-004], the CC50 at 4 days in data set [1] worked out at 11 µM. Also, the EC50 in data set [2] worked out at 4.53 µM; in data set [4], 0.19 µM; in data set [5], 8.55 µM.
As for `COC(=O)c1ccc2[nH]cc(C(=O)C(Nc3cccc(OC)c3)c3ccccc3)c2c1` (stereo not drawn) [CPD-142], the CC50 at 4 days in data set [1] was found to be 13 µM. Moreover, the EC50 turned out to be 1.71 µM in data set [2], 0.1 µM in data set [4] and 3.97 µM in data set [5].
In data set [1], `COc1cccc(NC(C(=O)c2cn(S(C)(=O)=O)c3ccc(F)cc23)c2ccccc2)c1` (stereo not drawn) [CPD-212] gave a CC50 at 4 days above 110 µM. In addition, the figures for the concentration for a half-maximal effect (EC50) in data set [3], in data set [4] and in data set [5] were 2.64 µM, 0.42 µM and 5.9 µM, respectively.
In turn, `COc1cccc(NC(C(=O)c2c[nH]c3cc(Cl)ccc23)c2cc(C)on2)c1` (stereo not drawn) [CPD-116] displayed a CC50 at 4 days in data set [1] of 13 µM. In addition, the figures for the EC50 in data set [2], in data set [4] and in data set [5] were 4.19 µM, 0.14 µM and 9.3 µM, respectively.
For `COc1cccc(NC(C(=O)c2nn(C)c3ccc(F)cc23)c2ccccc2)c1` (stereo not drawn) [CPD-270] the same measures were above 128 µM, 1.57 µM, 0.13 µM and 1.87 µM.
For `COc1cccc(NC(C(=O)c2c[nH]c3cc(C)ccc23)c2ccccc2)c1` (stereo not drawn) [CPD-122] the same measures were 16 µM, 3.64 µM, 0.02 µM and 8.25 µM.
`COc1cc(NC(C(=O)c2c[nH]c3ccccc23)c2ccccc2)nc(OC)n1` (stereo not drawn) [CPD-087] had a CC50 at 4 days in data set [1] above 128 µM. Also, the EC50 was 6.05 µM in data set [2] and 0.8 µM in data set [4].
For `COc1cccc(NC(C(=O)c2cn(S(=O)(=O)C3CCOC3)c3ccccc23)c2ccccc2)c1` (stereo not drawn) [CPD-208], in data set [1], the CC50 at 4 days was above 102 µM. Besides, the EC50 in data set [3] amounted to 6.95 µM; in data set [4] it was 0.37 µM; in data set [5] it was 6.65 µM.
As to `COc1cccc(NC(C(=O)c2nn(CCO)c3ccccc23)c2ccccc2)c1` (stereo not drawn) [CPD-303], the CC50 in data set [1] worked out at 71 µM. In addition, the concentration for a half-maximal effect (EC50) in data set [2] is 3.26 µM; in data set [4], 0.52 µM.
In turn, `COc1cccc(NC(C(=O)c2c[nH]c3c(F)cccc23)c2ccc(OC)nc2)c1` (stereo not drawn) [CPD-155] gave a CC50 at 4 days in data set [1] of 15 µM. Also, the EC50 worked out at 2.94 µM in data set [2] and 0.08 µM in data set [4].
As to `COc1cccc(NC(C(=O)c2c[nH]c3ccccc23)c2cncnc2)c1` (stereo not drawn) [CPD-029], in data set [1], the CC50 at 4 days was 65 µM. The EC50 came to 2.82 µM in data set [2] and 0.84 µM in data set [4].
For the compound `COc1cc(CO)cc(NC(C(=O)c2cn(C)c3ccccc23)c2ccccc2)c1` (stereo not drawn) [CPD-307], the CC50 at 4 days in data set [1] was above 124 µM. In addition, the half-maximal effective concentration (EC50) in data set [2] turned out to be 2.43 µM; in data set [3], 11.5 µM; in data set [4], 0.18 µM.
Take `COc1cc(NC(C(=O)c2c[nH]c3c(C)cccc23)c2ccc(F)cc2)cc(OC)c1` (stereo not drawn) [CPD-341]: the CC50 at 4 days in data set [1] is 12 µM. Besides, the figures for the concentration for a half-maximal effect (EC50) in data set [3], in data set [4] and in data set [5] were 3.36 µM, 0.002 µM and 0.05 µM, respectively.
`COc1cccc(NC(C(=O)c2cn(CCCO)c3ccccc23)c2ccccc2)c1` (stereo not drawn) [CPD-128] yielded a CC50 in data set [1] of 63 µM. In addition, the results for the EC50 in data set [2], in data set [4] and in data set [5] were 7.5 µM, 0.56 µM and 18.4 µM, respectively.
As to `COc1cccc(NC(C(=O)c2c[nH]c3ncc(F)cc23)c2ccccc2)c1` (stereo not drawn) [CPD-227], the CC50 at 4 days in data set [1] was above 124 µM. Also, the EC50 in data set [3] was 7.45 µM; in data set [4], 0.27 µM; in data set [5], 2.91 µM.
In the same order, the values of `COc1cc(CO)cc(NC(C(=O)c2c[nH]c3cc(F)ccc23)c2cccnc2)c1` (stereo not drawn) [CPD-344] are 94 µM, 25.9 µM, 0.09 µM and 0.79 µM.

These data come from US12012411B2, “Viral replication inhibitors” (Katholieke Universiteit Leuven, priority 2011, dated 2024).
